The values that follow come from ChEMBL document CHEMBL1909046, “DrugMatrix in vitro pharmacology data”.

pIC50, pKi: −log10 of the molar value.

Series [1] concerns the target T1, 5-hydroxytryptamine receptor 1A (Rattus norvegicus, UniProt P19327). Also: in other assays of this panel Not Active means under 50% inhibition at 10 µM.
T1 sequence (P19327 whole entry): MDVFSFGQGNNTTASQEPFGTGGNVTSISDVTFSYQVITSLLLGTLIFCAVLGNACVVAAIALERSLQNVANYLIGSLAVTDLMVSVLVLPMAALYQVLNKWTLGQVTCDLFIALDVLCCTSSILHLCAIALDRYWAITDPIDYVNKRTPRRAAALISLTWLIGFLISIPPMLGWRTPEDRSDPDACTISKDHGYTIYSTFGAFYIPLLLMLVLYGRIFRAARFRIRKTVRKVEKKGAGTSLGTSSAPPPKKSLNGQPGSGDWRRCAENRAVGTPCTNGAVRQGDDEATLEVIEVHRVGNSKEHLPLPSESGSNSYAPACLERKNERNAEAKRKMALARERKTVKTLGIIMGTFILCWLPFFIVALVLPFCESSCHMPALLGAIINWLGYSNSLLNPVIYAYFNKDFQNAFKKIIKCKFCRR
The series is classed as cell membranes, Membrane. To be noted: cho-k1.

The next series deals with D(1A) dopamine receptor (Homo sapiens, UniProt P21728). Nature of the series: DRUGMATRIX: Dopamine D1 radioligand binding (ligand: [3H] SCH-23390). The series is classed as cell membranes, Membrane. To be noted: cho; Not Active = under 50% inhibition at 10 µM.
Sequence of D(1A) dopamine receptor (P21728 whole entry): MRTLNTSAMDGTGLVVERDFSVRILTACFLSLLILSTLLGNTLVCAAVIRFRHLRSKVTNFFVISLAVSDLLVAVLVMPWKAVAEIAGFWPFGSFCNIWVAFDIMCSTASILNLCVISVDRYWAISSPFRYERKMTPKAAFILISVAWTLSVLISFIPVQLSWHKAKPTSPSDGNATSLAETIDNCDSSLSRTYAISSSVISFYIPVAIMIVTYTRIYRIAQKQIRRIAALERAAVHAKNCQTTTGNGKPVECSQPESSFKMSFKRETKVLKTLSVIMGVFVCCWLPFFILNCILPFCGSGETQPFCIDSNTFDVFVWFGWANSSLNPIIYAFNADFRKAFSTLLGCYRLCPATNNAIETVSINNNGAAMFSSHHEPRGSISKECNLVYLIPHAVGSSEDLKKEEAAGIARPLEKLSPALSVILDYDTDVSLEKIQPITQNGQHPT
The nature of series [2]: DRUGMATRIX: Tumor Necrosis Factor (TNF), Non-Selective radioligand binding (ligand: [125I] TNF-alpha). The series is classed as cell membranes, Membrane. Conditions: u-937; Not Active = under 50% inhibition at 10 µM.
Series [3] addresses cGMP-specific 3',5'-cyclic phosphodiesterase (Homo sapiens, UniProt O76074). Put plainly: DRUGMATRIX: Phosphodiesterase PDE5 enzyme inhibition (substrate: [3H]cGMP + cGMP). The series is classed as tissue-based. To be noted: platelet; Not Active = under 50% inhibition at 10 µM.
Series [4] can be described thus: DRUGMATRIX: Sigma2 radioligand binding (ligand: [3H] Ifenprodil). The series is classed as cell membranes, Rattus norvegicus, Wistar, Brain, Membrane. To be noted: Not Active = under 50% inhibition at 10 µM.
The target of the next series is T2, Cytochrome P450 1A2 (Homo sapiens, UniProt P05177). Also: in other assays of this panel Not Active means under 50% inhibition at 10 µM.
T2 sequence (P05177 whole entry): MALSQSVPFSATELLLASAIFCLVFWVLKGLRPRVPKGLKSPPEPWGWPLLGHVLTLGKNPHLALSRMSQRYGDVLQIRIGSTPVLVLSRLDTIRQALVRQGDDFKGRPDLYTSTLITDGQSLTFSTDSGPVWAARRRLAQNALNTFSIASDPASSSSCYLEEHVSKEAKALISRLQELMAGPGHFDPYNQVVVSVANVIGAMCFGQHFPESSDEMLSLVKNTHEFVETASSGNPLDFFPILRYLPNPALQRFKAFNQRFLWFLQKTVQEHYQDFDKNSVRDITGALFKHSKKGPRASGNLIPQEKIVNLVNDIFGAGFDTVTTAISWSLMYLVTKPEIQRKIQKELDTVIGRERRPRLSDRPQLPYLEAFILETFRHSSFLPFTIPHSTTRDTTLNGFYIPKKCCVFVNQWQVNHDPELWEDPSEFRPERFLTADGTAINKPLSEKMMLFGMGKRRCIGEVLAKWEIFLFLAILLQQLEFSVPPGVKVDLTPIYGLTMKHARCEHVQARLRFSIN
To be noted: bti-tn-5b1-4.

The target of series [5] is T3, Alpha-1A adrenergic receptor (Rattus norvegicus, UniProt P43140).
T3 sequence (P43140 whole entry): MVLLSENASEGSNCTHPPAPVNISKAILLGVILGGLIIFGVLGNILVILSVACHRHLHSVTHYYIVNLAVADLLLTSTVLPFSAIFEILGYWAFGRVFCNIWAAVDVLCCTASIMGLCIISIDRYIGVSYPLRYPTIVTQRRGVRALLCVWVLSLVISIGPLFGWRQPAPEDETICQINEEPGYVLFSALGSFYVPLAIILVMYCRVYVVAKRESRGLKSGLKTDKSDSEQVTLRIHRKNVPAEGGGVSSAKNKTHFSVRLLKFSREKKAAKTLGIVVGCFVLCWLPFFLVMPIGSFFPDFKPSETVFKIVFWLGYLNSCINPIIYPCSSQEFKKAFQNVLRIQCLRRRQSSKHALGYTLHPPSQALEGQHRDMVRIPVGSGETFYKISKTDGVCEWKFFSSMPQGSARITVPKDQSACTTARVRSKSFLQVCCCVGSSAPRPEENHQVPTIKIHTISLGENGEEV
Nature of the series: DRUGMATRIX: Alpha-1A adrenergic receptor radioligand binding (ligand: prazosin). The series is classed as cell membranes, Wistar, Submaxillary gland, Membrane. Conditions: Not Active = under 50% inhibition at 10 µM.

The target of series [6] is Delta-type opioid receptor (Homo sapiens, UniProt P41143). The series is classed as cell membranes, HEK293, Membrane. To be noted: hek293. Also: in other assays of this panel Not Active means under 50% inhibition at 10 µM.
Sequence of Delta-type opioid receptor (P41143 whole entry): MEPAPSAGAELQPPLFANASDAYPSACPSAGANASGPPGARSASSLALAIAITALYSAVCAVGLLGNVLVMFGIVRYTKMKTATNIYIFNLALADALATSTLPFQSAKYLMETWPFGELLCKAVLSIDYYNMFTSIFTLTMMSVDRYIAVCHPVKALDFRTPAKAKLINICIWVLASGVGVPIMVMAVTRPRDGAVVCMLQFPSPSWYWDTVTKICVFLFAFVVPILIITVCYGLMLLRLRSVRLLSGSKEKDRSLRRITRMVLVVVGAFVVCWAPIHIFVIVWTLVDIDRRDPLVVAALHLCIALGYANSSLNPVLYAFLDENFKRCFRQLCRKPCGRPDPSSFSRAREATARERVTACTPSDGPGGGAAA

Consider `O=C(C1CCCCC1)N1CC(=O)N2CCc3ccccc3C2C1` (centres undefined) [PRAZIQUANTEL], for which the IC50 entry (in series [1]; at D(1A) dopamine receptor; in series [2]; in series [3]; in series [4]; at Cytochrome P450 1A2) was “Not Active” in each case. In addition, the IC50 entry in series [5] and in series [6] was “Not Active” throughout. Further, the Ki result (in series [2]; in series [4]; on Cytochrome P450 1A2) was “Not Active” throughout.
Consider `CCN(CC)CCOC(=O)c1ccc(N)cc1` [PROCAINE], for which the IC50 entry (in series [1]; on D(1A) dopamine receptor; in series [2]; in series [3]; in series [4]; at Cytochrome P450 1A2) was “Not Active” in each case. For the same compound, the IC50 entry in series [5] and in series [6] was “Not Active” throughout. Further, the Ki entry (in series [2]; in series [4]; at Cytochrome P450 1A2) was “Not Active” in each case.
As for `CCCN(CCC)C(=O)C(CCC(=O)O)NC(=O)c1ccccc1` (centres undefined) [PROGLUMIDE], the IC50 entry (in series [1]; on D(1A) dopamine receptor; in series [2]; in series [3]; in series [4]; on Cytochrome P450 1A2) was “Not Active” throughout. Further, the IC50 result in series [5] and in series [6] was “Not Active” throughout. The Ki entry (in series [2]; in series [4]; at Cytochrome P450 1A2) was “Not Active” each time.
On to `NC(=O)c1cnccn1` [PYRAZINAMIDE], for which the IC50 result (in series [1]; at D(1A) dopamine receptor; in series [2]; in series [3]; in series [4]; at Cytochrome P450 1A2) was “Not Active” in each case. The IC50 entry in series [5] and in series [6] was “Not Active” each time. Also, the Ki result (in series [2]; in series [4]; on Cytochrome P450 1A2) was “Not Active” in each case.
For orientation: pIC50 means the IC50 on a negative log10 scale, so that one unit is a factor of ten. A word on the pKi: it is the negative decadic logarithm of the Ki, by convention in mol/L. Turning to `OC(CCN1CCCCC1)(c1ccccc1)C1CCCCC1` (centres undefined) [TRIHEXYPHENIDYL], the IC50 entry (in series [1]; at D(1A) dopamine receptor; in series [2]; in series [3]; against Cytochrome P450 1A2; in series [5]) was “Not Active” throughout. The IC50 result in series [6] is “Not Active”. Moreover, the Ki result (in series [2]; on Cytochrome P450 1A2) was “Not Active” each time. For the same compound, the pIC50 in series [4] (read-out: IC50) was 5.51. In series [4] (read-out: Ki), the pKi was 5.72.
With `Cc1cc2cc3c(C)cc(=O)oc3c(C)c2o1` [TRIOXSALEN], the IC50 result (in series [1]; at D(1A) dopamine receptor; in series [2]; in series [3]; in series [4]; against Cytochrome P450 1A2) was “Not Active” each time. The IC50 result in series [5] and in series [6] was “Not Active” in each case. Further, the Ki entry (in series [2]; in series [4]; on Cytochrome P450 1A2) was “Not Active” each time.
`CCCC(CCC)C(=O)O` [VALPROIC ACID]: the IC50 result (in series [1]; on D(1A) dopamine receptor; in series [2]; in series [3]; in series [4]; against Cytochrome P450 1A2) was “Not Active” throughout. Also, the IC50 result in series [5] and in series [6] was “Not Active” throughout. For the same compound, the Ki entry (in series [2]; in series [4]; at Cytochrome P450 1A2) was “Not Active” each time.
Consider `CCC1=C[C@@H]2CN(C1)Cc1c([nH]c3ccccc13)[C@@](C(=O)OC)(c1cc3c(cc1OC)N(C)[C@H]1[C@@](O)(C(=O)OC)[C@H](OC(C)=O)[C@]4(CC)C=CCN5CC[C@]31[C@@H]54)C2` [VINORELBINE], for which the IC50 result (in series [1]; on D(1A) dopamine receptor; in series [2]; in series [3]; in series [4]; at Cytochrome P450 1A2) was “Not Active” in each case. Besides, the IC50 result in series [5] and in series [6] was “Not Active” each time. The Ki entry (in series [2]; in series [4]; at Cytochrome P450 1A2) was “Not Active” in each case.
For CADMIUM DICHLORIDE, the IC50 result (in series [1]; on D(1A) dopamine receptor; in series [2]; in series [3]; in series [4]; at Cytochrome P450 1A2) was “Not Active” in each case. Also, the IC50 result in series [5] and in series [6] was “Not Active” each time. The Ki result (in series [1]; at D(1A) dopamine receptor; in series [2]; in series [3]; in series [4]; at Cytochrome P450 1A2) was “Not Active” throughout. Also, the Ki result in series [5] and in series [6] was “Not Active” each time.
